From BigSolDB 2.1

Row | solubility (mole fraction) (in n-octanol, 293.15 K) | solubility (mole fraction) (in n-octanol, 298.15 K) | solubility (mole fraction) (in n-octanol, 303.15 K) | solubility (mole fraction) (in n-octanol, 310.15 K) | solubility (mole fraction) (in n-octanol, 315.15 K) | solubility (mole fraction) (in water, 293.15 K) | solubility (mole fraction) (in water, 298.15 K) | solubility (mole fraction) (in water, 303.15 K) | solubility (mole fraction) (in water, 310.15 K) | solubility (mole fraction) (in water, 315.15 K) | SMILES
1 | 0.0026 | 0.003 | 0.00361 | 0.00465 | 0.00562 | 2.72e-06 | 3.64e-06 | 4.88e-06 | 7.63e-06 | 8.29e-06 | Nc1ccc(S(=O)(=O)Nc2ccc([N+](=O)[O-])cc2)cc1
2 | 0.00112 | 0.00129 | 0.00158 | 0.00197 | 0.00234 | 4.11e-06 | 5.47e-06 | 7.58e-06 | 1.16e-05 | 1.45e-05 | N#Cc1ccc(NS(=O)(=O)c2ccc(N)cc2)cc1
3 | 0.00958 | 0.0116 | 0.0139 | 0.018 | 0.0222 | 1.45e-06 | 1.85e-06 | 2.32e-06 | 3.19e-06 | 3.71e-06 | O=[N+]([O-])c1ccc(NS(=O)(=O)c2ccccc2)cc1
